# Columns and labels:
# [1] = molecular target: human BCL6 BTB domain (Trx-6×His-BCL6) / BCOR-AF633 peptide (Homo sapiens (Human), UniProt P41182); assay: HTRF assay; type: binding; conditions: 1 nM Trx-6×His-BCL6, 300 nM BCOR-AF633 peptide, 2 hours incubation; for IC50: HTRF avg pIC50 (1 nM)
# [2] = molecular target: BCL6-NCOR2(SMRT) corepressor protein-protein interaction (Homo sapiens (Human), UniProt P41182); assay: NanoBRET cell assay; type: cell-based; conditions: for NanoBRET cell avg pIC50: HEK293T cells co-transfected with BCL6-nanoLuc and NCOR2-HaloTag, 6 hr incubation; for IC50: read-out: NanoBRET cell avg pIC50 (converted)
# Source text: At 20 hr post-transfection, cells were collected, washed with PBS, and exchanged into media containing phenol red-free OptiMEM+4% FBS (Life Technology).
SMILES,IC50 [1] [µM],NanoBRET cell avg pIC50 [2],IC50 [2] [µM],HTRF avg pIC50 (1 nM) [1]
"Cn1c(=O)c2c(c3cc(Nc4nc(N5C6COCC5CC(C)(O)C6)ncc4Cl)ccc31)N[C@@H](C1CC1)CCO2 (stereo partly drawn) [Example 12h, (R)-10-((5-chloro-2-((1R,5S,7S)-7-hydroxy-7-methyl-3-oxa-9-azabicyclo[3.3.1]nonan-9-yl)pyrimidin-4-yl)amino)-2-cyclopropyl-7-methyl-1,2,3,4-tetrahydro-[1,4]oxazepino[2,3-c]quinolin-6(7H)-one]",,,0.145,7.93
C[C@H]1COC(=O)c2c(c3cc(Nc4cc(OC5CCOCC5)ncc4Cl)ccc3n(C)c2=O)N1 [Example 7a],,,19.1,6.72
"Cn1c(=O)c2c(c3cc(Nc4ccnc(Cl)c4C#N)ccc31)N[C@@H](C1CC1)CCS2 [Example 1s, (R)-2-chloro-4-((2-cyclopropyl-7-methyl-6-oxo-1,2,3,4,6,7-hexahydro-[1,4]thiazepino[2,3-c]quinolin-10-yl)amino)nicotinonitrile]",,,0.0631,7.83
"C[C@H]1CCOc2c(c3cc(Nc4nc(N5CCC(C(=O)N(C)C)CC5)ncc4Cl)ccc3n(C)c2=O)N1 [Example 5d, (S)-1-(5-chloro-4-((2,7-dimethyl-6-oxo-1,2,3,4,6,7-hexahydro-[1,4]oxazepino[2,3-c]quinolin-10-yl)amino)pyrimidin-2-yl)-N,N-dimethylpiperidine-4-carboxamide]",,,1.41,6.83
"Cn1c(=O)c2c(c3cc(Nc4nc(N5C6CCC5CS(=O)(=O)C6)ncc4Cl)ccc31)N[C@@H](C1CC1)CCO2 [Example 12j, (R)-10-((5-chloro-2-(3,3-dioxido-3-thia-8-azabicyclo[3.2.1]octan-8-yl)pyrimidin-4-yl)amino)-2-cyclopropyl-7-methyl-1,2,3,4-tetrahydro-[1,4]oxazepino[2,3-c]quinolin-6(7H)-one]",,,0.234,7.78
"C[C@H]1CCOc2c(c3cc(Nc4nc(N5CCOCC5)ncc4Cl)ccc3n(C)c2=O)N1 [Example 5h, (S)-10-((5-chloro-2-morpholinopyrimidin-4-yl)amino)-2,7-dimethyl-1,2,3,4-tetrahydro-[1,4]oxazepino[2,3-c]quinolin-6(7H)-one]",,,1.74,7.01
"Cn1c(=O)c2c(c3cc(Nc4nc(N5C6COCC5CC(O)C6)ncc4Cl)cnc31)N[C@@H](C1CC1)CCO2 (stereo partly drawn) [Example 11b, (R)-10-((5-chloro-2-((1R,5S,7S)-7-hydroxy-3-oxa-9-azabicyclo[3.3.1]nonan-9-yl)pyrimidin-4-yl)amino)-2-cyclopropyl-7-methyl-1,2,3,4-tetrahydro-[1,4]oxazepino[2,3-c][1,8]naphthyridin-6(7H)-one]",,,0.0324,8.16
"C[C@H]1COC(=O)c2c(c3cc(Nc4nc(N5C6CCCC5CC6)ncc4Cl)ccc3n(C)c2=O)N1 [Example 8b, (2S)-10-((2-(8-azabicyclo[3.2.1]octan-8-yl)-5-chloropyrimidin-4-yl)amino)-2,7-dimethyl-2,3-dihydro-[1,4]oxazepino[6,5-c]quinoline-5,6(1H,7H)-dione]",,,2.19,6.85
"Cn1c(=O)c2c(c3cc(Nc4nc(N5C6COCC5CC(O)C6)ncc4Cl)ccc31)N[C@@H](C1CC1)CCO2 (stereo partly drawn) [Example 5n, (R)-10-((5-chloro-2-((1R,5S,7S)-7-hydroxy-3-oxa-9-azabicyclo[3.3.1]nonan-9-yl)pyrimidin-4-yl)amino)-2-cyclopropyl-7-methyl-1,2,3,4-tetrahydro-[1,4]oxazepino[2,3-c]quinolin-6(7H)-one]",,,0.0363,7.97
"Cn1c(=O)c2c(c3cc(Nc4nc(N5C6COCC5CC(O)C6)ncc4Cl)ccc31)N[C@@H](C1CC1)C(F)(F)CO2 (stereo partly drawn) [Example 11c, (S)-10-((5-chloro-2-((1R,5S,7R)-7-hydroxy-3-oxa-9-azabicyclo[3.3.1]-nonan-9-yl)pyrimidin-4-yl)amino)-2-cyclopropyl-3,3-difluoro-7-methyl-1,2,3,4-tetrahydro-[1,4]oxazepino[2,3-c]quinolin-6(7H)-one]",,8.19,,8.93
"Cn1c(=O)c2c(c3cc(Nc4nc(N5CC(C)(C)OC(C)(C)C5)ncc4Cl)ccc31)N[C@@H](C1CC1)CCO2 [Example 5k, (R)-10-((5-chloro-2-(2,2,6,6-tetramethylmorpholino)pyrimidin-4-yl)amino)-2-cyclopropyl-7-methyl-1,2,3,4-tetrahydro-[1,4]oxazepino[2,3-c]quinolin-6(7H)-one]",,,0.112,7.22
"C[C@H]1CCOc2c(c3cc(Nc4nc(-n5ccc(C(F)(F)F)n5)ncc4Cl)ccc3n(C)c2=O)N1 [Example 5c, (S)-10-((5-chloro-2-(3-(trifluoromethyl)-1H-pyrazol-1-yl)pyrimidin-4-yl)amino)-2,7-dimethyl-1,2,3,4-tetrahydro-[1,4]oxazepino[2,3-c]quinolin-6(7H)-one]",,,4.68,6.43
"C[C@H]1CCOc2c(c3cc(Nc4ccnc(Cl)c4Cl)ccc3n(C)c2=O)N1 [Example 4a, (S)-10-((2,3-dichloropyridin-4-yl)amino)-2,7-dimethyl-1,2,3,4-tetrahydro-[1,4]oxazepino[2,3-c]quinolin-6(7H)-one]",,,4.9,6.21
"Cn1c(=O)c2c(c3cc(Nc4nc(N5C6CCC5CS(=O)(=O)C6)ncc4Cl)ccc31)N[C@@H](C1CC1)C(F)(F)CO2 [Example 12w, (S)-10-((5-chloro-2-(3,3-dioxido-3-thia-8-azabicyclo[3.2.1]octan-8-yl)pyrimidin-4-yl)amino)-2-cyclopropyl-3,3-difluoro-7-methyl-1,2,3,4-tetrahydro-[1,4]oxazepino[2,3-c]quinolin-6(7H)-one]",,,0.011,8.73
"COC[C@@H]1CCCN1C(=O)c1cc(Nc2ccc3c(c2)c2c(c(=O)n3C)OCC[C@H](C)N2)c(Cl)cn1 [Example 4b, (S)-10-((5-chloro-2-((S)-2-(methoxymethyl)pyrrolidine-1-carbonyl)pyridin-4-yl)amino)-2,7-dimethyl-1,2,3,4-tetrahydro-[1,4]oxazepino[2,3-c]quinolin-6(7H)-one]",,,3.31,6.70
"Cn1c(=O)c2c(c3cc(Nc4ccnc(Cl)c4C#N)ccc31)N[C@@H](C1CC1)C(F)(F)CO2 [Example 1v, (S)-2-chloro-4-((2-cyclopropyl-3,3-difluoro-7-methyl-6-oxo-1,2,3,4,6,7-hexahydro-[1,4]oxazepino[2,3-c]quinolin-10-yl)amino)nicotinonitrile]",,7.83,,8.58
"C[C@@H]1CN(c2ncc(Cl)c(Nc3ccc4c(c3)c3c(c(=O)n4C)OCC[C@H](C)N3)n2)C[C@H](C)O1 [Example 5g, (S)-10-((5-chloro-2-((2S,6R)-2,6-dimethylmorpholino)pyrimidin-4-yl)amino)-2,7-dimethyl-1,2,3,4-tetrahydro-[1,4]oxazepino[2,3-c]quinolin-6(7H)-one]",,,2.04,6.88

# Other lines, results leading:
IC50 [1] [µM],NanoBRET cell avg pIC50 [2],IC50 [2] [µM],HTRF avg pIC50 (1 nM) [1],SMILES
0.00263,7.83,,,"Cn1c(=O)c2c(c3cc(Nc4nc(N5CC6CCC(C5)O6)ncc4Cl)ccc31)N[C@@H](C1CC1)C(F)(F)CO2 [Example 12u, (S)-10-((2-(8-oxa-3-azabicyclo[3.2.1]octan-3-yl)-5-chloropyrimidin-4-yl)amino)-2-cyclopropyl-3,3-difluoro-7-methyl-1,2,3,4-tetrahydro-[1,4]oxazepino[2,3-c]quinolin-6(7H)-one]"
0.275,,25.7,,"CC1Nc2c(c(=O)n(C)c3ccc(Nc4nc(N5C[C@H](C)C[C@H](C)C5)ncc4Cl)cc23)C(=O)OC1C (mixture of isomers) [Example 8p, rac-(2S,3R)-10-((5-chloro-2-((3S,5R)-3,5-dimethylpiperidin-1-yl)pyrimidin-4-yl)amino)-2,3,7-trimethyl-2,3-dihydro-[1,4]oxazepino[6,5-c]quinoline-5,6(1H,7H)-dione or rac-(2S,3S)-10-((5-chloro-2-((3S,5R)-3,5-dimethylpiperidin-1-yl)pyrimidin-4-yl)amino)-2,3,7-trimethyl-2,3-dihydro-[1,4]oxazepino[6,5-c]quinoline-5,6(1H,7H)-dione]"
,,9.33,6.43,"Cn1c(=O)c2c(c3cc(Nc4nc(N5CCC(F)(F)CC5)ncc4Cl)ccc31)NC(C1CC1)COC2=O (centres unmarked) [Example 8o, 10-((5-chloro-2-(4,4-difluoropiperidin-1-yl)pyrimidin-4-yl)amino)-2-cyclopropyl-7-methyl-2,3-dihydro-[1,4]oxazepino[6,5-c]quinoline-5,6(1H,7H)-dione]"
,,9.55,6.97,"C[C@@H]1CN(c2ncc(Cl)c(Nc3ccc4c(c3)c3c(c(=O)n4C)C(=O)OC[C@H](C)N3)n2)C[C@H](C)O1 [Example 8a, (S)-10-((5-chloro-2-((2S,6R)-2,6-dimethylmorpholino)pyrimidin-4-yl)amino)-2,7-dimethyl-2,3-dihydro-[1,4]oxazepino[6,5-c]quinoline-5,6(1H,7H)-dione]"
,,0.0186,8.82,"CN1CCN(c2ncc(Cl)c(Nc3ccc4c(c3)c3c(c(=O)n4C)OCC(F)(F)[C@H](C4CC4)N3)n2)CC1=O [Example 12a, (S)-10-((5-chloro-2-(4-methyl-3-oxopiperazin-1-yl)pyrimidin-4-yl)amino)-2-cyclopropyl-3,3-difluoro-7-methyl-1,2,3,4-tetrahydro-[1,4]oxazepino[2,3-c]quinolin-6(7H)-one]"

# — patent US20230287003A1, “BCL6 INHIBITORS” (Cancer Research Technology Limited, priority 2018, published 2023)
